From patent US9271993B2, “Treatment of bacterial infectious diseases” (priority 2010, dated 2016)
In brackets after ≈: the same amount, converted by molar mass. Like-named read-outs stand apart in the source and are kept apart here.

Assays:
bacterial ribosomes = experiment: Ribosomal drug susceptibility (MIC) of recombinant bacteria; settings: Table 10
cytohybrid ribosomes = experiment: as above; settings: Table 10
Description: (§1) The recombinants carrying the respective mutational alterations were subjected to determinations of minimal inhibitory concentrations (MIC) to assess ribosomal drug susceptibility. Cultures from single colonies were grown in LB medium supplemented with 0.05% Tween 80 and used for MIC tests in a microtiter plate format. Starting cultures contained 200 μl of bacterial cells at an optical density of 0.025 at 600 nm, and the respective drug was added in twofold series of dilution.

mitohybrid ribosomes = experiment: as above; settings: Table 10
Description: as §1

E. coli = experiment: MIC against gram-negative bacteria; type: cell-based; settings: Escherichia coli, read-out: MIC
Description: Agents Chemother. 2003, 47:1496-1502.

[1] = tested on: clinical methicillin resistant Staphylococcus aureus (MRSA) isolates; experiment: MIC against clinical MRSA isolates, LB microdilution assay
Description: Activity was assessed by determination of minimal inhibitory concentrations (MIC), as described in Pfister et al., Antimicrob. […] Cultures from single colonies were grown in LB medium and used for MIC tests in a microtiter plate format. Starting cultures contained 200 μl of bacterial cells at an optical density of 0.025 at 600 nm, and the respective drug was added in twofold series of dilution.

[2] = E. coli AG02, clin. isol (Gm^S)
[3] = E. coli AG03, clin. isol (Gm^R)
[4] = E. coli AG07, BM13/pIP135, resistance mechanism AAC(3)
[5] = E. coli AG08, BM13/pIP055, resistance mechanism ANT(2″)
[6] = E. coli AG09, AAC(6′)-1B, resistance mechanism AAC(6′)
[7] = E. coli AG36, HB101/pAT197, resistance mechanism ANT(4′)
[8] = E. coli AG37, HB101/pAG21-1, resistance mechanism APH(3′)
[9] = Staphylococcus aureus, MRSA, MRSA AG038, strain 70-26S Gm^S
[10] = Staphylococcus aureus, MRSA, MRSA AG041, strain 98-25S Gm^S
[11] = Staphylococcus aureus, MRSA, MRSA AG043, strain 01-08R Gm^R
[12] = Staphylococcus aureus, MRSA, MRSA AG044, strain 07-12R Gm^R
[13] = Staphylococcus aureus, MRSA, MRSA AG045, strain 08-12R Gm^R
[14] = Staphylococcus aureus, MRSA, MRSA AG053, strain 56-06R Gm^R

CNC1C(OC2OC(CO)C(NC(=O)C(O)CCN)C(O)C2O)OC2CC(N)C(OC3C(N)CC(N)C(O)C3O)OC2C1O [ETH 105, 4″-N-[(2S)-4-Amino-2-hydroxybutyryl]apramycin]
MIC, wild type bacteria (bacterial ribosomes): 4.0 µg/mL | MIC, bacteria with cytohybrid ribosome (cytohybrid ribosomes): >256.0 µg/mL | MIC, bacteria with mitohybrid ribosome (mitohybrid ribosomes): >256.0 µg/mL

CN[C@@H]1[C@@H](O)[C@@H](O[C@@H]2[C@@H](O)[C@H](O[C@H]3OC(CN)=CC[C@H]3N)[C@@H](N)C[C@H]2N)OC[C@]1(C)O [Sisomicin]
MIC (E. coli; [2]): 1 µg/mL (≈ 2.23 µM) | MIC (E. coli; [3]): 32 to 128 µg/mL (≈ 71.5 to 286 µM) | MIC (E. coli; E. coli AG06, BM13): 0.25 µg/mL (≈ 0.559 µM) | MIC (E. coli; [4]): 16 µg/mL (≈ 35.8 µM) | MIC (E. coli; [5]): 8 µg/mL (≈ 17.9 µM) | MIC (E. coli; [6]): 16 µg/mL (≈ 35.8 µM) | MIC (E. coli; [7]): 0.25 µg/mL (≈ 0.559 µM) | MIC (E. coli; [8]): 0.125 µg/mL (≈ 0.279 µM) | MIC [1, 9]: 0.25 µg/mL (≈ 0.559 µM) | MIC ([1]; Staphylococcus aureus, MRSA, MRSA AG040, strain 87-26S Gm^S): 0.25 µg/mL (≈ 0.559 µM) | MIC [1, 10]: 0.25 µg/mL (≈ 0.559 µM) | MIC ([1]; Staphylococcus aureus, MRSA, MRSA AG042, strain 101-06R Gm^R): 32 µg/mL (≈ 71.5 µM) | MIC [1, 11]: 32 to 64 µg/mL (≈ 71.5 to 143 µM) | MIC [1, 12]: 8 µg/mL (≈ 17.9 µM) | MIC [1, 13]: 4 to 8 µg/mL (≈ 8.94 to 17.9 µM) | MIC ([1]; Staphylococcus aureus, MRSA, MRSA AG046, strain 12-06R Gm^R): > 256 µg/mL | MIC ([1]; Staphylococcus aureus, MRSA, MRSA AG047, strain 18-06R Gm^R): > 256 µg/mL | MIC ([1]; Staphylococcus aureus, MRSA, MRSA AG048, strain 20-06R Gm^R): > 256 µg/mL | MIC ([1]; Staphylococcus aureus, MRSA, MRSA AG049, strain 23-12R Gm^R): 8 µg/mL (≈ 17.9 µM) | MIC ([1]; Staphylococcus aureus, MRSA, MRSA AG050, strain 31-06R Gm^R): 128 to 256 µg/mL (≈ 286 to 572 µM) | MIC ([1]; Staphylococcus aureus, MRSA, MRSA AG051, strain 36-06R Gm^R): 64 µg/mL (≈ 143 µM) | MIC ([1]; Staphylococcus aureus, MRSA, MRSA AG052, strain 53-14I Gm^R): 8 µg/mL (≈ 17.9 µM) | MIC [1, 14]: 32 µg/mL (≈ 71.5 µM)

NC[C@@H]1O[C@H](O[C@H]2[C@@H](O)[C@H](O[C@@H]3[C@@H](O)[C@H](N)C[C@H](N)[C@H]3O[C@H]3O[C@H](CO)[C@@H](O)[C@H](O)[C@H]3N)O[C@@H]2CO)[C@H](N)[C@@H](O)[C@@H]1O [Paromomycin]
MIC (E. coli; E. coli AG01, clin. isol. (Gm^S)): 16 to 32 µg/mL (≈ 26 to 52 µM) | MIC (E. coli; [2]): 8 to 16 µg/mL (≈ 13 to 26 µM) | MIC (E. coli; [3]): 8 to 16 µg/mL (≈ 13 to 26 µM) | MIC (E. coli; E. coli AG06, BM13): 2 µg/mL (≈ 3.25 µM) | MIC (E. coli; [4]): 8 µg/mL (≈ 13 µM) | MIC (E. coli; [5]): 4 to 8 µg/mL (≈ 6.5 to 13 µM) | MIC (E. coli; [6]): 8 to 16 µg/mL (≈ 13 to 26 µM) | MIC (E. coli; [7]): 256 µg/mL (≈ 416 µM) | MIC (E. coli; [8]): > 256 µg/mL | MIC ([1]; MRSA AG040, strain 87-26S Gm^S): >256 µg/mL | MIC ([1]; MRSA AG046, strain 12-06R Gm^R): >256 µg/mL | MIC ([1]; MRSA AG047, strain 18-06R Gm^R): >256 µg/mL | MIC ([1]; MRSA AG048, strain 20-06R Gm^R): >256 µg/mL | MIC ([1]; MRSA AG049, strain 23-12R Gm^R): >256 µg/mL | MIC ([1]; MRSA AG050, strain 31-06R Gm^R): >256 µg/mL | MIC ([1]; MRSA AG051, strain 36-06R Gm^R): >256 µg/mL | MIC ([1]; MRSA AG052, strain 53-14I Gm^R): >256 µg/mL | MIC ([1]; Staphylococcus aureus, MRSA): > 256 µg/mL | MIC [1, 9]: 2 to 4 µg/mL (≈ 3.25 to 6.5 µM) | MIC [1, 10]: 4 µg/mL (≈ 6.5 µM) | MIC [1, 11]: 4 to 8 µg/mL (≈ 6.5 to 13 µM) | MIC [1, 12]: 2 to 4 µg/mL (≈ 3.25 to 6.5 µM) | MIC [1, 13]: 4 µg/mL (≈ 6.5 µM) | MIC [1, 14]: 2 to 4 µg/mL (≈ 3.25 to 6.5 µM)

CC(=O)O.CC(=O)O.CC(=O)O.CC(=O)O.CN[C@@H]1[C@@H](O[C@H]2O[C@H](CO)[C@@H](N)[C@H](O)[C@H]2O)O[C@H]2C[C@@H](NC(=O)[C@@H](O)CCN)[C@@H](O[C@H]3[C@H](O)[C@@H](O)[C@H](N)C[C@@H]3N)O[C@@H]2[C@@H]1O [ETH 100, 2′-N-[(2S)-4-Amino-2-hydroxybutyryl]apramycin tetraacetate]
MIC, wild type bacteria (bacterial ribosomes): 2.0 to 4.0 µg/mL | MIC, bacteria with cytohybrid ribosome (cytohybrid ribosomes): >256.0 µg/mL | MIC, bacteria with mitohybrid ribosome (mitohybrid ribosomes): >256.0 µg/mL

CC(=O)O.CC(=O)O.CC(=O)O.CC(=O)O.CNC1C(OC2OC(CO)C(N)C(O)C2O)OC2CC(N)C(OC3C(N)CC(NC(=O)C(O)CCN)C(O)C3O)OC2C1O [ETH 102, 1-N-[(2S)-4-Amino-2-hydroxybutyryl]apramycin tetraacetate]
MIC, wild type bacteria (bacterial ribosomes): 4.0 µg/mL | MIC, bacteria with cytohybrid ribosome (cytohybrid ribosomes): >256.0 µg/mL | MIC, bacteria with mitohybrid ribosome (mitohybrid ribosomes): >256.0 µg/mL

CC(=O)O.CC(=O)O.CC(=O)O.CC(=O)O.CN1C(=O)OC2C3OC(OC4C(N)CC(N)C(O)C4O)C(N)CC3OC(OC3OC(CO)C(NC(=O)C(O)CCN)C(O)C3O)C21 [ETH 99, 7′-N,6′-O-Carbonyl-4″-N-[(2S)-4-amino-2-hydroxybutyryl]apramycin tetraacetate]
MIC, wild type bacteria (bacterial ribosomes): 2.0 to 4.0 µg/mL | MIC, bacteria with cytohybrid ribosome (cytohybrid ribosomes): >256.0 µg/mL | MIC, bacteria with mitohybrid ribosome (mitohybrid ribosomes): >256.0 µg/mL

CC(=O)O.CC(=O)O.CC(=O)O.CC(=O)O.CNC1C(OC2OC(CO)C(N)C(O)C2O)OC2CC(NC(=O)C(O)CCN3C(=O)c4ccccc4C3=O)C(OC3C(N)CC(N)C(O)C3O)OC2C1O (centres unmarked) [ETH 103]
MIC, wild type bacteria (bacterial ribosomes): 8.0 µg/mL | MIC, bacteria with cytohybrid ribosome (cytohybrid ribosomes): >256.0 µg/mL | MIC, bacteria with mitohybrid ribosome (mitohybrid ribosomes): >256.0 µg/mL
